Patent US4110327A, “2,3 Diketo-piperazinocarbonylamino alkanoic acids and derivatives” (Toyama Chemical Co., Ltd., priority 1974, dated 1978)
Values after ≈ are worked out from the molar mass of the structure shown.

Key:
Type in all cases: cell-based
[1] = test system: Shigella flexneri; assay: MIC against clinical isolates; conditions: unit assumed
Description: (§1) The minimum inhibitory concentrations (MIC) was determined by the plate method disclosed in "Chemotherapy" (Japan), Vol. 16, (1968), pages 98 - 99. The culture medium used was a Heart infusion agar (pH 7.4). The number of the cells per plate used in the inoculum as 10^4 (10^6 cells/ml).
(§2) MIC was determined in the same manner as in the preceding paragraph (1).

[2] = test system: Shigella sonnei; assay: MIC against clinical isolates; conditions: clinical isolate JS 11232; unit assumed
Description: as §1, §2

[3] = test system: Pseudomonas aeruginosa I.F.O.; assay: MIC against standard strain, plate method; conditions: unit assumed
Description: as §1

[4] = test system: Staphylococcus aureus 209p; assay: MIC against standard strain, plate method; conditions: unit assumed
Description: as §1

[5] = test system: Escherichia coli NIHJ; assay: MIC against standard strain, plate method; conditions: unit assumed
Description: as §1

[6] = test system: Proteus vulgaris 3027; assay: MIC against standard strain, plate method; conditions: Proteus vulgaris 3027, standard strain; unit assumed
Description: as §1

[7] = test system: Klebsiella pneumoniae; assay: MIC against clinical isolates; conditions: unit assumed
[8] = test system: Salmonella typhi-murium; assay: MIC against clinical isolates; conditions: unit assumed
[9] = test system: Staphylococcus aureus; assay: MIC against clinical isolates; conditions: unit assumed
[10] = test system: Pseudomonas aeruginosa; assay: MIC against clinical isolates; conditions: unit assumed
[11] = test system: Escherichia coli; assay: MIC against clinical isolates; conditions: unit assumed
[12] = test system: Salmonella typhi; assay: MIC against clinical isolates; conditions: unit assumed
[13] = test system: Klebsiella pneumoniae; assay: MIC against standard strain, plate method; conditions: unit assumed
Description: as §1

[14] = clinical isolate GN (number not given; Table 5-3)

| SMILES | MIC [3] [µg/mL] | MIC [4] [µg/mL] | MIC [5] [µg/mL] | MIC [6] [µg/mL] | MIC ([7]; clinical isolate GN 917) [µg/mL] | MIC ([9]; clinical isolate F-5) [µg/mL] | MIC ([9]; clinical isolate MS 8619) [µg/mL] | MIC ([10]; clinical isolate GN 82) [µg/mL] | MIC ([10]; clinical isolate GN 163) [µg/mL] | MIC ([10]; clinical isolate GN 221) [µg/mL] | MIC ([10]; clinical isolate GN 376) [µg/mL] | MIC ([10]; clinical isolate GN 383) [µg/mL] | MIC ([10]; clinical isolate GN 1035) [µg/mL] | MIC ([10]; clinical isolate GN 1091) [µg/mL] | MIC ([10]; clinical isolate GN 2565) [µg/mL] | MIC ([10]; clinical isolate GN 2987) [µg/mL] | MIC ([10]; clinical isolate S-1) [µg/mL] | MIC ([10]; clinical isolate S-2) [µg/mL] | MIC ([10]; clinical isolate S-3) [µg/mL] | MIC ([10]; clinical isolate S-4) [µg/mL] | further results |
| --- | --- | --- | --- | --- | --- | --- | --- | --- | --- | --- | --- | --- | --- | --- | --- | --- | --- | --- | --- | --- | --- |
| CC(=O)N1CCN(C(=O)N[C@@H](C(=O)N[C@@H]2C(=O)N3[C@@H]2SC(C)(C)[C@@H]3C(=O)O)c2ccccc2)C(=O)C1 [compound 1] | 25 (≈ 48.3 µM) | < 1.57 | < 1.57 | 3.13 (≈ 6.05 µM) | 25 (≈ 48.3 µM) | > 200 | 1.57 (≈ 3.03 µM) | 25 (≈ 48.3 µM) | 25 (≈ 48.3 µM) | 25 (≈ 48.3 µM) | 25 (≈ 48.3 µM) | 50 (≈ 96.6 µM) | 100 (≈ 193 µM) | 25 (≈ 48.3 µM) | 50 (≈ 96.6 µM) | 25 (≈ 48.3 µM) | 50 (≈ 96.6 µM) | 100 (≈ 193 µM) | 50 (≈ 96.6 µM) | 50 (≈ 96.6 µM) | MIC ([1]; clinical isolate JS 11215): 100 µg/mL (≈ 193 µM); MIC ([1]; clinical isolate JS 11839): 3.13 µg/mL (≈ 6.05 µM); MIC [2]: > 200 µg/mL; MIC ([7]; clinical isolate GN 3850): 25 µg/mL (≈ 48.3 µM); MIC ([7]; clinical isolate GN 4081): > 200 µg/mL; MIC ([7]; clinical isolate GN 4117): 200 µg/mL (≈ 386 µM); MIC ([8]; clinical isolate SL 858): 12.5 µg/mL (≈ 24.2 µM); MIC ([8]; clinical isolate SL 2136): > 200 µg/mL; MIC ([9]; clinical isolate F-2): 3.13 µg/mL (≈ 6.05 µM); MIC ([9]; clinical isolate MS 8596): 3.13 µg/mL (≈ 6.05 µM); MIC ([9]; clinical isolate MS 8684): 3.13 µg/mL (≈ 6.05 µM); MIC ([9]; clinical isolate MS 8713): 3.13 µg/mL (≈ 6.05 µM); MIC [10, 14]: 25 µg/mL (≈ 48.3 µM); MIC ([11]; clinical isolate GN 3465): 200 µg/mL (≈ 386 µM); MIC ([11]; clinical isolate K-2): 25 µg/mL (≈ 48.3 µM); MIC ([11]; clinical isolate K-3): > 200 µg/mL; MIC ([12]; clinical isolate SL 819): 6.25 µg/mL (≈ 12.1 µM); MIC ([12]; clinical isolate SL 2169): 6.25 µg/mL (≈ 12.1 µM) |
| CCCCCCN1CCN(C(=O)N[C@@H](C(=O)N[C@@H]2C(=O)N3[C@@H]2SC(C)(C)[C@@H]3C(=O)O)c2ccccc2)C(=O)C1 [compound 13] | 25 (≈ 44.7 µM) | < 1.57 | < 1.57 | < 1.57 | 12.5 (≈ 22.3 µM) | 200 (≈ 357 µM) | 0.79 (≈ 1.41 µM) | 50 (≈ 89.3 µM) | 25 (≈ 44.7 µM) | 50 (≈ 89.3 µM) | 50 (≈ 89.3 µM) | 50 (≈ 89.3 µM) | 50 (≈ 89.3 µM) | 25 (≈ 44.7 µM) | 50 (≈ 89.3 µM) | 12.5 (≈ 22.3 µM) | 50 (≈ 89.3 µM) | 50 (≈ 89.3 µM) | 100 (≈ 179 µM) | 50 (≈ 89.3 µM) | MIC ([1]; clinical isolate JS 11215): 12.5 µg/mL (≈ 22.3 µM); MIC ([1]; clinical isolate JS 11839): 1.57 µg/mL (≈ 2.81 µM); MIC [2]: 12.5 µg/mL (≈ 22.3 µM); MIC [13]: < 1.57 µg/mL; MIC ([7]; clinical isolate GN 4081): 25 µg/mL (≈ 44.7 µM); MIC ([7]; clinical isolate GN 4117): 25 µg/mL (≈ 44.7 µM); MIC ([8]; clinical isolate SL 858): 0.79 µg/mL (≈ 1.41 µM); MIC ([8]; clinical isolate SL 2136): 200 µg/mL (≈ 357 µM); MIC ([9]; clinical isolate F-1): 12.5 µg/mL (≈ 22.3 µM); MIC ([9]; clinical isolate F-2): 1.57 µg/mL (≈ 2.81 µM); MIC [10, 14]: 50 µg/mL (≈ 89.3 µM); MIC ([11]; clinical isolate GN 3465): 25 µg/mL (≈ 44.7 µM); MIC ([11]; clinical isolate K-3): 100 µg/mL (≈ 179 µM); MIC ([12]; clinical isolate SL 819): 6.25 µg/mL (≈ 11.2 µM); MIC ([12]; clinical isolate SL 2169): 3.13 µg/mL (≈ 5.59 µM) |
| CCCCN1CCN(C(=O)N[C@@H](C(=O)N[C@@H]2C(=O)N3[C@@H]2SC(C)(C)[C@@H]3C(=O)O)c2ccccc2)C(=O)C1 [compound 14] | 25 (≈ 47 µM) | < 1.57 | < 1.57 | < 1.57 | 25 (≈ 47 µM) | 200 (≈ 376 µM) | 0.79 (≈ 1.49 µM) | 25 (≈ 47 µM) | 25 (≈ 47 µM) | 25 (≈ 47 µM) | 50 (≈ 94 µM) | 50 (≈ 94 µM) | 50 (≈ 94 µM) | 25 (≈ 47 µM) | 50 (≈ 94 µM) | 12.5 (≈ 23.5 µM) | 50 (≈ 94 µM) | 50 (≈ 94 µM) | 100 (≈ 188 µM) | 50 (≈ 94 µM) | MIC ([1]; clinical isolate JS 11215): 25 µg/mL (≈ 47 µM); MIC [2]: 25 µg/mL (≈ 47 µM); MIC ([7]; clinical isolate GN 3850): 12.5 µg/mL (≈ 23.5 µM); MIC ([7]; clinical isolate GN 4081): 50 µg/mL (≈ 94 µM); MIC ([7]; clinical isolate GN 4117): 50 µg/mL (≈ 94 µM); MIC ([8]; clinical isolate SL 858): 1.57 µg/mL (≈ 2.95 µM); MIC ([8]; clinical isolate SL 2136): 200 µg/mL (≈ 376 µM); MIC ([9]; clinical isolate F-1): 12.5 µg/mL (≈ 23.5 µM); MIC [10, 14]: 50 µg/mL (≈ 94 µM); MIC ([11]; clinical isolate GN 3465): 50 µg/mL (≈ 94 µM); MIC ([11]; clinical isolate K-2): 12.5 µg/mL (≈ 23.5 µM); MIC ([11]; clinical isolate K-3): 200 µg/mL (≈ 376 µM); MIC ([12]; clinical isolate SL 819): 6.25 µg/mL (≈ 11.8 µM); MIC ([12]; clinical isolate SL 2169): 3.13 µg/mL (≈ 5.89 µM) |
| CCN1CCN(C(=O)NC(C(=O)NC2C(=O)N3C(C(=O)O)=C(CSc4nnnn4C)CSC23)c2ccccc2)C(=O)C1=O (centres unmarked) [compound 69] | 12.5 (≈ 19.9 µM) | < 0.79 | < 0.79 | < 0.79 | 0.78 (≈ 1.24 µM) | 0.78 (≈ 1.24 µM) | 0.78 (≈ 1.24 µM) | 12.5 (≈ 19.9 µM) | 12.5 (≈ 19.9 µM) | 6.25 (≈ 9.93 µM) | 12.5 (≈ 19.9 µM) | 25 (≈ 39.7 µM) | 50 (≈ 79.4 µM) | 12.5 (≈ 19.9 µM) | 50 (≈ 79.4 µM) | 12.5 (≈ 19.9 µM) | 25 (≈ 39.7 µM) | 25 (≈ 39.7 µM) | 50 (≈ 79.4 µM) | 50 (≈ 79.4 µM) | MIC [13]: < 0.4 µg/mL; MIC ([9]; clinical isolate F-1): 3.13 µg/mL (≈ 4.97 µM); MIC ([9]; clinical isolate F-2): 1.56 µg/mL (≈ 2.48 µM); MIC ([9]; clinical isolate F-3): 0.78 µg/mL (≈ 1.24 µM); MIC ([9]; clinical isolate F-4): 3.13 µg/mL (≈ 4.97 µM); MIC ([9]; clinical isolate MS 8588): 1.56 µg/mL (≈ 2.48 µM); MIC ([9]; clinical isolate MS 8596): 1.56 µg/mL (≈ 2.48 µM); MIC ([9]; clinical isolate MS 8684): 1.56 µg/mL (≈ 2.48 µM); MIC ([9]; clinical isolate MS 8713): 1.56 µg/mL (≈ 2.48 µM); MIC ([10]; clinical isolate GN 244): 25 µg/mL (≈ 39.7 µM) |
